Measurements reported in ChEMBL document CHEMBL3872201, “Synthesis and antiproliferative activity of a natural like glycoconjugate polycyclic compound” (2016).
Calls of active or inactive are those of the source. No cut-off for these calls is given here.

What was measured:
[1] = Antiproliferative activity against human HL-60(TB) cells after 48 hrs by sulforhodamine B assay; format: functional; conditions: HL-60, 48 h
[2] = Antiproliferative activity against human MOLT4 cells after 48 hrs by sulforhodamine B assay; format: functional; conditions: MOLT-4, 48 h
[3] = Antiproliferative activity against human RPMI8226 cells after 48 hrs by sulforhodamine B assay; format: functional; conditions: RPMI-8226, 48 h
[4] = Antiproliferative activity against human NCI-H23 cells after 48 hrs by sulforhodamine B assay; format: functional; conditions: NCI-H23, 48 h
[5] = Antiproliferative activity against human NCI-H460 cells after 48 hrs by sulforhodamine B assay; format: functional; conditions: NCI-H460, 48 h
[6] = Antiproliferative activity against human COLO205 cells after 48 hrs by sulforhodamine B assay; format: functional; conditions: COLO 205, 48 h
[7] = Antiproliferative activity against human HCC2998 cells after 48 hrs by sulforhodamine B assay; format: functional; conditions: HCC 2998, 48 h
[8] = Antiproliferative activity against human SNB19 cells after 48 hrs by sulforhodamine B assay; format: functional; conditions: SNB-19, 48 h
[9] = Antiproliferative activity against human MALME-3M cells after 48 hrs by sulforhodamine B assay; format: functional
[10] = Antiproliferative activity against human MDA-MB-435 cells after 48 hrs by sulforhodamine B assay; format: functional; conditions: MDA-MB-435, 48 h
[11] = Antiproliferative activity against human UACC257 cells after 48 hrs by sulforhodamine B assay; format: functional; conditions: UACC-257, 48 h
[12] = Antiproliferative activity against human IGROV1 cells after 48 hrs by sulforhodamine B assay; format: functional; conditions: IGROV-1, 48 h
[13] = Antiproliferative activity against human OVCAR3 cells after 48 hrs by sulforhodamine B assay; format: functional; conditions: OVCAR-3, 48 h
[14] = Antiproliferative activity against human OVCAR5 cells after 48 hrs by sulforhodamine B assay; format: functional; conditions: OVCAR-5, 48 h
[15] = Antiproliferative activity against human 786-0 cells after 48 hrs by sulforhodamine B assay; format: functional; conditions: 786-0, 48 h
[16] = Antiproliferative activity against human A498 cells after 48 hrs by sulforhodamine B assay; format: functional; conditions: A498, 48 h
[17] = Antiproliferative activity against human Caki1 cells after 48 hrs by sulforhodamine B assay; format: functional; conditions: CAKI-1, 48 h
[18] = Antiproliferative activity against human UO31 cells after 48 hrs by sulforhodamine B assay; format: functional; conditions: UO-31, 48 h
[19] = Antiproliferative activity against human MCF7 cells after 48 hrs by sulforhodamine B assay; format: functional; conditions: MCF7, 48 h
[20] = Antiproliferative activity against human Hs 578T cells after 48 hrs by sulforhodamine B assay; format: functional
[21] = test system: MDA-MB-231; assay: Cytotoxicity against human MDA-MB-231 cells assessed as inhibition of cell viability at 5 to 10 uM up to 72 hrs by MTT assay; format: functional, cell-based
[22] = Cell cycle arrest in human MDA-MB-231 cells assessed as accumulation at subG0/G1 phase at 5 uM after 24 hrs by propidium iodide staining based flow cytometric analysis (reference value: 7.6%); format: functional
[23] = Cell cycle arrest in human MDA-MB-231 cells assessed as accumulation at G0/G1 phase at 5 uM after 24 hrs by propidium iodide staining based flow cytometric analysis (reference value: 66.5%); format: functional
[24] = Cell cycle arrest in human MDA-MB-231 cells assessed as accumulation at G2/M phase at 5 uM after 24 hrs by propidium iodide staining based flow cytometric analysis (reference value: 20.4%); format: functional
[25] = Cell cycle arrest in human MDA-MB-231 cells assessed as accumulation at subG0/G1 phase at 10 uM after 24 hrs by propidium iodide staining based flow cytometric analysis (reference value: 7.6%); format: functional
[26] = Cell cycle arrest in human MDA-MB-231 cells assessed as accumulation at G0/G1 phase at 5 uM after 48 hrs by propidium iodide staining based flow cytometric analysis (reference value: 67%); format: functional
[27] = Cell cycle arrest in human MDA-MB-231 cells assessed as accumulation at subG0/G1 phase at 10 uM after 72 hrs by propidium iodide staining based flow cytometric analysis (reference value: 6.3%); format: functional
[28] = Cell cycle arrest in human MDA-MB-231 cells assessed as accumulation at G2/M phase at 10 uM after 72 hrs by propidium iodide staining based flow cytometric analysis (reference value: 19.7%); format: functional
[29] = test system: MDA-MB-231; assay: Effect on cell cycle regulatory protein in human MDA-MB-231 cells assessed as cyclin B1 level at 5 uM after 24 hrs by Western blot analysis relative to control; format: functional
[30] = test system: MDA-MB-231; assay: Effect on cell cycle regulatory protein in human MDA-MB-231 cells assessed as cyclin B1 level at 5 uM after 48 hrs by Western blot analysis relative to control; format: functional
[31] = test system: MDA-MB-231; assay: Effect on cell cycle regulatory protein in human MDA-MB-231 cells assessed as cdc2 level at 10 uM after 48 hrs by Western blot analysis relative to control; format: functional
[32] = test system: MDA-MB-231; assay: Effect on cell cycle regulatory protein in human MDA-MB-231 cells assessed as p21 level at 5 uM after 24 hrs by Western blot analysis relative to control; format: functional
[33] = test system: MDA-MB-231; assay: Effect on cell cycle regulatory protein in human MDA-MB-231 cells assessed as p21 level at 10 uM after 24 hrs by Western blot analysis relative to control; format: functional
[34] = test system: MDA-MB-231; assay: Effect on cell cycle regulatory protein in human MDA-MB-231 cells assessed as p21 level at 5 uM after 48 hrs by Western blot analysis relative to control; format: functional
[35] = read-out: LC50 (the source's name)

Work on C=C1c2c(C)nn(-c3ccc(C#CCO[C@@H]4O[C@H](CO)[C@@H](O)[C@H](O)[C@H]4O)cc3)c2N(C)C23CC1C1(C)c4c(C)nn(-c5ccc(C#CCO[C@@H]6O[C@H](CO)[C@@H](O)[C@H](O)[C@H]6O)cc5)c4N(C)C(C)(CC12)C3 (some centres undefined) yielded a GI50 [1] of 2.07 µM, a TGI [1] of 4.43 µM and a CC50 [1, 35] of 9.49 µM. The GI50 [2] was 1.28 µM, the TGI [2] was 3.88 µM and the CC50 [2, 35] was 100 µM. It also gave a GI50 [3] of 0.29 µM, a TGI [3] of 1.72 µM and a CC50 [3, 35] of 100 µM. It also gave a GI50 [4] of 2.33 µM, a TGI [4] of 6.59 µM and a CC50 [4, 35] of 100 µM. For the same compound, the GI50 [5] was 1.69 µM, the TGI [5] was 3.85 µM and the CC50 [5, 35] was 8.77 µM. The GI50 [6] was 1.47 µM, the TGI [6] was 2.88 µM and the CC50 [6, 35] was 5.63 µM. It also gave a GI50 [7] of 1.57 µM, a TGI [7] of 3.15 µM and a CC50 [7, 35] of 6.32 µM. For the same compound, the GI50 [8] was 1.66 µM, the TGI [8] was 3.95 µM and the CC50 [8, 35] was 9.37 µM. For the same compound, the GI50 [9] was 1.87 µM, the TGI [9] was 3.66 µM and the CC50 [9, 35] was 7.17 µM. It also gave a GI50 [10] of 1.67 µM, a TGI [10] of 3.77 µM and a CC50 [10, 35] of 8.5 µM. It also gave a GI50 [11] of 1.82 µM, a TGI [11] of 4.56 µM and a CC50 [11, 35] of 15.4 µM. The GI50 [12] was 1.56 µM, the TGI [12] was 3.95 µM and the CC50 [12, 35] was 10.1 µM. For the same compound, the GI50 [13] was 1.52 µM, the TGI [13] was 3.8 µM and the CC50 [13, 35] was 9.49 µM. It also gave a GI50 [14] of 1.78 µM, a TGI [14] of 3.54 µM and a CC50 [14, 35] of 7.05 µM. It also gave a GI50 [15] of 2.66 µM, a TGI [15] of 7.78 µM and a CC50 [15, 35] of 29.6 µM. It also gave a GI50 [16] of 1.5 µM, a TGI [16] of 3.18 µM and a CC50 [16, 35] of 6.72 µM. It also gave a GI50 [17] of 2.81 µM, a TGI [17] of 11.6 µM and a CC50 [17, 35] of 49 µM. It also gave a GI50 [18] of 2.83 µM, a TGI [18] of 10.1 µM and a CC50 [18, 35] of 31.8 µM. It also gave a GI50 [19] of 1.38 µM, a TGI [19] of 3.2 µM and a CC50 [19, 35] of 7.42 µM. For the same compound, the GI50 [20] was 0.47 µM, the TGI [20] was 9.85 µM and the CC50 [20, 35] was 100 µM. The inhibition [21] was “Active”, the Activity [22] was 7.1% and the Activity [23] was 56.9%. It also gave an Activity [24] of 24.4%, an Activity [25] of 2.2% and an Activity [26] of 64.3%. The Activity [27] was 1.6%, the Activity [28] was 31.1% and the “fold change (FC)” value [29] was 0.9. For the same compound, the “fold change (FC)” value [30] was 1, the “fold change (FC)” value [31] was 0.3 and the “fold change (FC)” value [32] was 0.1. For the same compound, the “fold change (FC)” value [33] was 1 and the “fold change (FC)” value [34] was 0.2.
